# Source: publication PMC9681850, “Structural basis of synthetic agonist activation of the nuclear receptor REV-ERB” (Nature Communications, 2022)
# Several values for one entry are separate records, joined by “and”; a condition that tells them apart may be missing. Identical values can stand only once.
# Assays:
# REV-ERB regulated genes = system: REV-ERB regulated genes; design: method as in ref 17 re-assessed; ref 48; settings: RNA-seq data of ref 17 re-assessed; cited from earlier work
# BMAL1 in HepG2 cells = assay: expression of BMAL1 by qPCR; assay type: cell-based, human; design: key: Bmal1 expression normalized to Ppia; settings: 5 μM, 24 h, single replicates (n = 4)
# From the text: We next determined whether STL1267 can regulate characterized REV-ERB modulated genes in cell lines expressing REV-ERB naturally. Five micromolar doses of both drugs were used in cell-based experiments from this point on. REV-ERB is an established component of the core molecular clock repressing the expression of core clock gene Bmal1[6],[27] as well as others[28],[29]. […] In skeletal muscle, REV-ERB agonism increases the expression of a wide variety of genes important in mitochondrial function.
# (§1) The human hepatocellular carcinoma cell line, HepG2 cells (ATCC HB-8065), were cultured in 10% FBS 1% L-Glu MEM at 37 °C in a humidified atmosphere of 5% CO2. Prior to RNA extraction cells were treated with either DMSO or REV-ERB agonist for 24 h. The C2C12 proliferating mouse myoblast cells (ATCC, CRL-1772) were cultured in 10% FBS DMEM at 37 °C in a humidified atmosphere of 5% CO2. Prior to RNA extraction cells were treated with either DMSO or REV-ERB agonist for 24 h. Prior to crystal violet cytotoxicity assay, cells were treated with either DMSO or REV-ERB agonist for 48 h.
# Mouse tissue was homogenized using a bullet blender. DNA/protein was removed by phase separation using BCP/chloroform. The supernatant (RNA containing fraction) was collected, and RNA was precipitated using isopropanol. The RNA pellets were washed with 75% ethanol and resolubilized in RNAse free water. […]
# HepG2 cells = assay: cell viability by crystal violet staining; assay type: cell-based, human; settings: for cell viability (Fig 2a source data): crystal violet, normalized to DMSO, single replicates
# Protocol: (§2) Cellular viability was tested in two cell types, human hepatocarcinoma HepG2 cells and proliferating C2C12 mouse myoblast cells.
# (§3) Data are presented as mean ± SEM. Source data are available as a Source Data file.
# as §1, with “Prior to crystal violet cytotoxicity assay, cells were treated with either DMSO or REV-ERB agonist for 48 h.” left out
# (§4) […] Media was removed, and cells were incubated with 0.5% crystal violet solution for 20 min at room temperature with mild agitation. Cells were washed four times with tap water before being air drying overnight. Cells were incubated in methanol for 20 min with mild agitation. Absorbance was read at 570 nm, and readings were normalized to vehicle (DMSO) treated cells.
# [1] = system: proliferating C2C12 mouse myoblast cells; assay: cell viability by crystal violet staining; assay type: cell-based; settings: for cell viability (Fig. 2b source data): crystal violet, normalized to DMSO, single replicates; for reduction in cellular viability: proliferating C2C12 cells
# Protocol: as §2, §3
# as §1, with “Prior to crystal violet cytotoxicity assay, cells were treated with either DMSO or REV-ERB agonist for 48 h.” left out
# as §4
# [2] = target: NCoR1-VP16 fusion protein (a fragment of the NCoR1 corepressor); assay: two-hybrid reporter assay (Gal4-FL REV-ERBα/NCoR1-VP16); settings: HEK293 cells with Gal4UAS luciferase reporter; read at the highest dose shared with WT, log [STL1267] (µM) about 0.4; parent: est. 49; read off a plot
response (Normalized RLU) [2],Compound,REV-ERB regulated genes still regulated in Rev-erbα/β DKO hepatocytes (REV-ERB regulated genes) [%],Bmal1 (Fig. 2c) expression (BMAL1 in HepG2 cells),"cell viability (Fig 2a source data) (HepG2 cells; HepG2, 1uM, listed as SR009)","cell viability (Fig 2a source data) (HepG2 cells; HepG2, 2uM, listed as SR909)","cell viability (Fig 2a source data) (HepG2 cells; HepG2, 5uM)","cell viability (Fig 2a source data) (HepG2 cells; HepG2, 10uM)","cell viability (Fig 2a source data) (HepG2 cells; HepG2, 20uM)","reduction in cell viability (HepG2 cells; HepG2 cells, 10 and 20 μM)","cell viability (Fig. 2b source data) ([1]; C2C12, 1 uM)","cell viability (Fig. 2b source data) ([1]; C2C12, 2 uM)","cell viability (Fig. 2b source data) ([1]; C2C12, 5 uM)","cell viability (Fig. 2b source data) ([1]; C2C12, 10 uM)","cell viability (Fig. 2b source data) ([1]; C2C12, 20 uM)",reduction in cellular viability ([1]; 10 μM),reduction in cellular viability ([1]; 20 μM)
,"CCOC(=O)N1CCC(CN(Cc2ccc(Cl)cc2)Cc2ccc([N+](=O)[O-])s2)C1 (centres unmarked) [SR9009, reference compound]",39,0.6576 and 0.6833 and 0.6229 and 0.6990,97.2789 and 85.5104 and 113.189 and 114.805 and 107.077 and 107.33 and 98.8951 and 92.8847,100.006 and 84.3488 and 101.774 and 112.583 and 88.7935 and 85.3589 and 86.1671 and 96.3697,99.2992 and 90.5108 and 87.6823 and 102.582 and 76.621 and 82.8335 and 95.5616 and 87.3793,106.875 and 80.1566 and 109.199 and 93.9453 and 73.8936 and 70.661 and 84.7528 and 82.682,91.723 and 73.742 and 95.107 and 95.2585 and 84.7528 and 75.1058 and 92.3796 and 105.158,~ 10%,96.141 and 87.1558 and 95.0006 and 119.571 and 103.64,73.3671 and 83.0434 and 96.4175 and 95.0006 and 98.2145 and 106.301 and 112.141 and 107.994,97.5233 and 96.3829 and 104.02 and 104.331 and 114.111 and 109.239 and 109.791 and 104.884,81.4883 and 68.2525 and 56.4681 and 49.4183 and 62.032 and 78.1707 and 78.3435 and 86.2228,29.4436 and 32.6575 and 37.392 and 34.0399 and 33.6597 and 55.6387 and 64.9695 and 68.7363,~ 25%,~ 50%
7,full length human REV-ERBα fused to the GAL4 DNA-binding domain (wild type) (from UniProt P20393) F443A,,,,,,,,,,,,,,,
73,full length human REV-ERBα fused to the GAL4 DNA-binding domain (wild type) (from UniProt P20393) F488A,,,,,,,,,,,,,,,
